# Reference: patent US11952432B2, “Cell-permeable stapled peptide modules for cellular delivery” (Dana-Farber Cancer Institute, Inc., priority 2018, dated 2024)
# “Also recorded” adds a separate entry of the source. Bridge positions count the residues as written; N and C are the ends. Square brackets hold non-standard residues; d marks the D form. Ends that are not written are not given here. R8 = C=CCCCCCC[C@@](C)(N)C(=O)O; S5 = C=CCCC[C@](C)(N)C(=O)O; Nle = CCCC[C@H](N)C(=O)O; CycB = not defined here; βAla = NCCC(=O)O
# Key:
# cells = assay: Cellular uptake and intracellular distribution of TAMRA-labeled peptides by fluorescence microscopy; conditions: for Distribution/Observations: TAMRA-labeled peptides 10 μM, approximately 1 hour incubation, fluorescence microscope
# Description: In Vitro Cell Uptake Assays: To assess cellular uptake of cargoes that are bound to cell-permeable stapled peptide modules, fluorescent tracers (e.g. TAMRA, FITC) are attached to the cell-permeable stapled peptide modules or the cargos. The cellular uptake can be tracked by, e.g., epifluorescence microscopy, fluorescence microscopy, confocal microscopy, and/or flow cytometry, at different time periods. In this manner, the rate of uptake and the intracellular distribution patterns of the stabilized peptides (e.g., CPSPs and CPSP-conjugates, other cell-permeable stapled peptides) can also be determined.
# CPSP1-CPSP9 and L-CPSP (where L is an F-actin staining peptide) were labeled with a fluorescent dye, TAMRA. […] These TAMRA-labeled peptides (10 μM) were added to cell culture. After incubating the peptides with the cells for approximately 1 hour, the cells were examined by a fluorescence microscope.
# Furthermore, TAMRA-labeled CPSP3 (SEQ ID NO: 14) (10 μM) and MitoTracker were both added to the cell culture.
# MCL-1 = biological target: T1, MCL-1 (Homo sapiens, UniProt Q07820); assay: Intracellular binding assay: colocalization with expressed MCL-1 ectopically targeted to the nuclear lamina; format: cell-based; conditions: colocalization at nuclear lamina with ectopically targeted MCL-1 (FIG. 5)
# T1 construct: expressed in transfected cells
# T1 sequence (Q07820 whole entry, species assumed): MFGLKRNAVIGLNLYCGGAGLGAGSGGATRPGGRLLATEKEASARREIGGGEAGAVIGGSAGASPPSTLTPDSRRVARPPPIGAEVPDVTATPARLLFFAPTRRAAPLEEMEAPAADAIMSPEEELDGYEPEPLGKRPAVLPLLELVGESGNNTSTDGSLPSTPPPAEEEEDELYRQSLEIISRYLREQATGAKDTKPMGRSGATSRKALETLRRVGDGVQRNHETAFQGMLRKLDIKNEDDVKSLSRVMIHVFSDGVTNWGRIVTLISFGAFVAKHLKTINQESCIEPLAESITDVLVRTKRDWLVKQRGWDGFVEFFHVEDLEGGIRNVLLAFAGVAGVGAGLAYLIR
# Description: Intracellular binding Assays: To assess the binding of the CPSP-fusions to their respective protein target(s), cells were transfected with a GFP binding nanobody fraction coupled to nuclear lamina binding sequence (lamin B1). This nanobody binds to GFP tagged proteins and recruits them to the nuclear lamina allowing the recruitment and visualization of proteins interacting with the GFP tagged protein of interest. For example, GFP-MCL-1 can be expressed and localized to the nuclear lamina, followed by treatment of cells with TAMRA-labeled ATSP-7041/MCL-1 SAHBD fusion, followed by confocal microscopy imaging to monitor for the colocalization of TAMRA-labeled CPSP fusion at the nuclear lamina.
# [1] = tested on: mitochondria of the treated cells; assay: Co-labeling of TAMRA-labeled CPSP3 with MitoTracker; format: cell-based; conditions: 10 μM (FIG. 2); listed as TAMRA-labeled CPSP3
# [2] = conjugated to CPSP3, 10 μM (FIG. 3B)
Substance,Distribution/Observations (cells),further results
* Ba X R r R X Naph (SEQ ID NO: 17) [TAMRA-CPSP6],Cytosol; Nucleus; Nucleolus; Endosomes; lysosomes,–
* Ba X R r R X R Naph (SEQ ID NO: 16) [TAMRA-CPSP5],Cytosol; Nucleus; Nucleolus; Endosomes; lysosomes,–
"* Ba R K A L E T L R R V B D G V X R N H X T A F G G G G G L T F 8 E Y W A Q CycB X S A A (SEQ ID NO: 22) ([βAla]RKALETLRRV[Nle]DGV[S5]RNH[S5]TAFGGGGGLTF[R8]EYWAQ[CycB][S5]SAA; staple 16-20, 32-39 (inferred); reading uncertain; also: TAMRA label) [TAMRA-labeled MCL-1 SAHBD/ATSP-7041]",–,"delivery to the cytosol of treated cells (cells; 4 μM, 4 hours (FIG. 1, FIGS. 4A-B)): efficiently delivered to the cytosol; intracellular engagement of MCL-1 (MCL-1): colocalization of the fusion to the nuclear lamina; intracellular engagement of MCL-1 (MCL-1; listed as CPSP-MCL-1 SAHBD conjugate): retains the capacity to engage its intracellular target"
* Ba X R r R X R (SEQ ID NO: 12) [TAMRA-CPSP1],Cytosol; Nucleus; Nucleolus; Endosomes; lysosomes,–
Ac B G V A D L I K K F E X I A K X E K* G G G G G X R r R X R B (SEQ ID NO: 21) (Ac-[Nle]GVADLIKKFE[S5]IAK[S5]EK(TAMRA)GGGGG[S5]R[dR]R[S5]R[Nle]; not fully specified (bridges); bridges not given here) [TAMRA-L-CPSP3],Cytosol; Nucleus; Nucleolus; Endosomes; lysosomes;; also recorded: Actin filaments,delivery of the peptide into the cell (cells; [2]): robust delivery of the peptide into the cell; intracellular localization (cells; [2]): notable localization of L-CPSP3 to actin filaments
* Ba X R r R X R B (SEQ ID NO: 14) [TAMRA-CPSP3],CPSP3 were enriched at mitochondria as well as Cytosol;; also recorded: Nucleus; Nucleolus; Endosomes; lysosomes,enrichment at the mitochondria (co-labeling with MitoTracker) [1]: Enrichment of TAMRA-labeled CPSP3 at the mitochondria
* Ba X R r R X R B G X R r R X R B (SEQ ID NO: 20) [TAMRA-CPSP9],Cytosol; Nucleus; Nucleolus; Endosomes; lysosomes,–
* Ba X R R R X R B (SEQ ID NO: 18) [TAMRA-CPSP7],Cytosol; Nucleus; Nucleolus; Endosomes; lysosomes,–
* Ba X R r R X B (SEQ ID NO: 15) [TAMRA-CPSP4],Cytosol; Nucleus; Nucleolus; Endosomes; lysosomes,–
* Ba X R r R X (SEQ ID NO: 13) [TAMRA-CPSP2],Cytosol; Nucleus; Nucleolus; Endosomes; lysosomes,–
"* Ba XRrRXRB-GZG-EALKKALRRHRFLWQR RQRA (SEQ ID NO: 63) ([βAla][S5]R[dR]R[S5]R[Nle]G[βAla]GEALKKALRRHRFLWQRRQRA; not fully specified (N-terminus, bridges); bridges not given here; also: TAMRA label) [TAMRA-CPSP3/vMIA]",–,"intracellular delivery (cells; 10 μM, 1 h (FIG. 7, bottom panel)): robust intracellular delivery"
* Ba LTF8EYWAQ CycB XSAAAGGGGGK (SEQ ID NO: 61) -[GCCTAGTTTATCACCAATAAT] (SEQ ID NO: 62) [TAMRA-ATSP-7041/PNA],–,intracellular delivery (cells; PNA fusion (FIG. 6)): robust intracellular delivery
* Ba X R r R X R B G B R X R r R X (SEQ ID NO: 19) [TAMRA-CPSP8],Cytosol; Nucleus; Nucleolus; Endosomes; lysosomes,–
